Patent publication US20200268864A1, “CANCER VACCINE COMPOSITIONS AND METHODS FOR USING SAME TO TREAT CANCER” (Dana-Farber Cancer Institute, Inc., priority 2017, published 2020)

Tests used:
[1] = system: PPM tumors (Trp53−/−; Pten−/−; c-Myc); experiment: Orthotopic PPM tumor growth (bioluminescence); details: mouse, in vivo
Procedure: All animal experiments described in this study were performed according to the animal protocols approved by the DFCI Institutional Animal Care and Use Committee. Brca1^loxP/loxP [FVB/N] mice, bearing loxP sites in introns 4 and 13 of the Brca1 gene, and Trp53^loxP/loxP[FVB/N] mice bearing loxP in introns 2 and 10 of the p53 gene, were obtained from Dr. Jos Jonkers's laboratory (Netherlands Cancer Institute, Amsterdam, The Netherlands). These mice were intercrossed through multiple generations to create a colony of homozygous Trp53^loxP/loxP/Brca1^loxP/loxP double conditional knockout mice. Ovaries were harvested from 8-week-old female Trp53^loxP/loxP/Brca1^loxP/loxP mice. The ovaries were washed twice with phosphate-buffered and incubated in DMEM/F12 (Ham's) medium containing collagenase and dispase (stem cell technologies) for 40 min at 37° C. […]
Single cells were obtained by digestion of primary ovarian tumors in collagenase buffer and then cultured in MOT media (DMEM/F12, 0.6% FBS, 10 ng/ml EGF, hydrocortisone 1 μg/ml, cholera toxin 1 ng/ml, 100 μg/ml penicillin-streptomycin, 5 μM Y27632). […] The endpoints were determined by tumor burden and ascites. […]

[2] = system: human DCs co-cultured with UWB1.289; experiment: Co-culture of human DCs with olaparib-treated UWB1.289 cells; assay type: cell-based; details: BRCA1-deficient UWB1.289
Procedure: Bone marrow cells were isolated from FVB/NJ mice and cultured in RPMI-1640 containing 10% FBS and 20 ng/ml GM-CSF. BMDCs (bone marrow derived dendritic cells) were harvested for in vitro co-culture assay on day 7 to day 10. About 3×10^5 PBM or PPM tumor cells were cultured in a 6-well plate for 24 hr. and then treated with DMSO or olaparib. After 24 hr incubation with DMSO, olaparib, or olaparib in combination with other drugs (cell cycle inhibitor or apoptosis inhibitor), drugs were removed and tumor cells were washed twice with PBS. BMDCs were added and co-cultured with PBM or PPM cells at a ratio of 1:1 in 1.5 ml culture media in the presence of GM-CSF (20 ng/ml) and lipofectamine (2 μl) for 24 hr. Co-cultured cells were harvested for flow cytometry analysis and floating cells (percentage of BMDCs is about 90%), or RNA analysis. Cell culture supernatants were collected for detection of IFN-β with the ELISA kit. BMDCs generated from C57BL/6J mice were applied for the coculture of BMDCs with ID8 tumor cells. Human dendritic cells purchased from Lonza were used for the coculture of human DCs with DMSO or olaparib-treated human ovarian cancer cells ([…] and UWB1.289+BRCA1).

[3] = system: PP tumors (Pten−/−; Trp53−/−); experiment: PP tumor growth after intratumoral injection of PBM or PP cells plus olaparib; assay type: in vivo, mouse; details: 10^6 cells IT on day 1, 5, 9; olaparib 50 mg/kg/day IP from day 1
Procedure: All animal experiments described in this study were performed according to the animal protocols approved by the DFCI Institutional Animal Care and Use Committee. Pten^−/−; Trp53^−/− (termed PP) mammary epithelial tumor cells were derived from syngeneic FVB/N genetically engineered mouse model of breast tumors driven by concurrent loss of PTEN and P53 (K14-Cre/Pten^L/L, Trp53^L/L). 10^6 PP cells in 100 μl of 40% Matrigel® Matrix (Corning) in DMEM were injected into the mammary fat pad of FVB/N1 mice. When tumors were about 100-200 mm^3 in volume, three injections of 10^6 of Trp53^−/−; Brca1^−/−; c-Myc (termed PBM) ovarian surface epithelial tumor cells or PP cells were administered intraturnorally (IT) on day 1, 5, and 9, respectively. Mice were also administered 50 mg/kg/day of olaparib (AZD2281) in 10% DMSO via intraperitoneal injection (IP) from day 1. Olaparib was prepared by diluting 100 mg/ml stocks in DMSO with 10% of 2-hydroxyl-propyl-β-cyclodextrine (Sigma) in PBS. In another cohort of PP tumor, two doses of DMXAA (Sigma, 500 μg/dose) resuspended in 7.5% of NaHCO3 or vehicle control were injected IT over a one-week period. Tumor volume was calculated using the formula: V=0.52×length×width×width.

PBM and PPM tumor cells = experiment: Western blot of cGAS-STING signaling in tumor cells; assay type: cell-based, mouse

O=C(c1cc(Cc2n[nH]c(=O)c3ccccc23)ccc1F)N1CCN(C(=O)C2CC2)CC1 [olaparib, Olaparib]
progression of Brca-proficient PPM tumors [1]: little effect and not
levels of p-TBK1+p-IRF3+ and IFN-β in human DCs [2]: Increased levels
PP tumor growth [3]: suppressed the growth of PP tumors
STING signaling activity in tumor cells (PBM and PPM tumor cells): little STING signaling activity
